{"source": "paper PMC7316778", "about": "(Nature Communications, 2020)", "key": {"[1]": {"biological_target": "FES^S700C (Homo sapiens, UniProt P07332, S700C)", "sequence (P07332 whole entry S700C)": "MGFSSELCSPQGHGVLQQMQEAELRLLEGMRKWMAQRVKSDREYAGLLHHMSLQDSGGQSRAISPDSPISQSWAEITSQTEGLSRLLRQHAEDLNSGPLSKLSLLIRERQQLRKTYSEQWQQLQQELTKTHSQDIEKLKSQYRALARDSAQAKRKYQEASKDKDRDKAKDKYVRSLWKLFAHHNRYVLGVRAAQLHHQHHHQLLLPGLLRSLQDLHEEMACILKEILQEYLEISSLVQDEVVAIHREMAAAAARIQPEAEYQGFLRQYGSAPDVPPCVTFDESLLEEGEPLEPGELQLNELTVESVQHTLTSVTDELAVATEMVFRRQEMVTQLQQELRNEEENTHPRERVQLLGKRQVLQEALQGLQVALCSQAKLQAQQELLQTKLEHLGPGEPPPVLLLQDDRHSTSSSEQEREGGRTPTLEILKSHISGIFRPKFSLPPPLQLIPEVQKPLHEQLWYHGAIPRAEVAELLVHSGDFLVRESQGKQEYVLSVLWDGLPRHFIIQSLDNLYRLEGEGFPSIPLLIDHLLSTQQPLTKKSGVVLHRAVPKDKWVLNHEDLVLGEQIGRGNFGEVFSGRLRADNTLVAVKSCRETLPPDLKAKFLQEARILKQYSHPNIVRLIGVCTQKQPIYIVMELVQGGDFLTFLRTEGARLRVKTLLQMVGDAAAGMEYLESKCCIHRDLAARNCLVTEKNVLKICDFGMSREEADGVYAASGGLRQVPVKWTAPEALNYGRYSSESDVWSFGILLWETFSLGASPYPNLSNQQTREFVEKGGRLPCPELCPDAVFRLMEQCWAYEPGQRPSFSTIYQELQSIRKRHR", "test": "In situ two-step labeling of transfected HEK293T cells (click chemistry)", "type": "cell-based", "set-up": "expressed in transfected cells; host or cells: HEK293T (transient, PEI)"}, "[2]": {"biological_target": "CAMKK2 (CaMKK beta) (Homo sapiens, UniProt Q96RR4)", "test": "SelectScreen kinase assay"}, "[3]": {"biological_target": "T1, MAP2K3 (MEK3) (Homo sapiens, UniProt P46734)", "T1 sequence (P46734 1-347)": "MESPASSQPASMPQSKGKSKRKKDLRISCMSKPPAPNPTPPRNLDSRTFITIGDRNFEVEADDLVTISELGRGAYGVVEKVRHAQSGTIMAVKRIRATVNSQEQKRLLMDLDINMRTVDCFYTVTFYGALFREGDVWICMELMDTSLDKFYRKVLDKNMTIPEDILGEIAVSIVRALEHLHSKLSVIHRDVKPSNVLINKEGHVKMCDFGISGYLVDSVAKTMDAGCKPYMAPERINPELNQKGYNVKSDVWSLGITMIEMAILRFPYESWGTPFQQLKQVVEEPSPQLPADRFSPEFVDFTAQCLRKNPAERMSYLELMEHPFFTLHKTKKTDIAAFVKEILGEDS", "test": "SelectScreen kinase assay"}, "[4]": {"biological_target": "NEK7 (Homo sapiens, UniProt Q8TDX7)", "test": "SelectScreen kinase assay"}, "[5]": {"biological_target": "endogenous FES^S700C (Homo sapiens, UniProt P07332, S700C)", "sequence (P07332 whole entry S700C)": "as the sequence (P07332 whole entry S700C) above", "test": "Gel-based target engagement in HL-60 neutrophils"}, "[6]": {"biological_target": "CDC42 BPG (MRCKG) (Homo sapiens, UniProt Q6DT37)", "test": "SelectScreen kinase assay"}, "[7]": {"biological_target": "PIK3CA/PIK3R1 (p110a/p85a) (Homo sapiens, UniProt P42336)", "sequence (P42336 whole entry)": "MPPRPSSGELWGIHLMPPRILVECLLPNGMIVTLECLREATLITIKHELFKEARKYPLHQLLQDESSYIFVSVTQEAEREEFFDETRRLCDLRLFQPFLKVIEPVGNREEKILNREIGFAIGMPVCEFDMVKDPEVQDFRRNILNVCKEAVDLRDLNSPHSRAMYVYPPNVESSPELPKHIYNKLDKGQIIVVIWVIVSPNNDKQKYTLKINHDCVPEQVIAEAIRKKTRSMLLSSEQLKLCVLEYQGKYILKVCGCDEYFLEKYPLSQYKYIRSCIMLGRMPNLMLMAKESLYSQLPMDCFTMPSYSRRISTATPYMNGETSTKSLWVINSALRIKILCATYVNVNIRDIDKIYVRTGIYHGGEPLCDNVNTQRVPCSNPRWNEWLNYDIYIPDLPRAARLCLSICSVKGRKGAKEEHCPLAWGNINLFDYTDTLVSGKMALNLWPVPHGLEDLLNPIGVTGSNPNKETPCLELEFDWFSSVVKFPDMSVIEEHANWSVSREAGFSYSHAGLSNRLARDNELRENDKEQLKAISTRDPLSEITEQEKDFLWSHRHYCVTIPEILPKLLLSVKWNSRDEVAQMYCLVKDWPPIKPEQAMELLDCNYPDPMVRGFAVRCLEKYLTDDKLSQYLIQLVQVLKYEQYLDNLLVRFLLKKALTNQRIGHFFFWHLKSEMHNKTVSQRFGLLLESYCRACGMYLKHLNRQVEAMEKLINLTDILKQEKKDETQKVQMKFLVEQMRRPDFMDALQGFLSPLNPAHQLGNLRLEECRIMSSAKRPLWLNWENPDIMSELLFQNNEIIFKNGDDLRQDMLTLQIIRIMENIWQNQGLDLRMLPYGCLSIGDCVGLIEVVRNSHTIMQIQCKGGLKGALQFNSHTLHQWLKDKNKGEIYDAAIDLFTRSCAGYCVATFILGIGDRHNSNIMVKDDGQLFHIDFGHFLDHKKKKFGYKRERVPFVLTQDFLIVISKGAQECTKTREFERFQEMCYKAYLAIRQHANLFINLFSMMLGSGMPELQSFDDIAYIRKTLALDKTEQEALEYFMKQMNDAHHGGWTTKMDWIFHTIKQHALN", "sequence (P27986 whole entry partner)": "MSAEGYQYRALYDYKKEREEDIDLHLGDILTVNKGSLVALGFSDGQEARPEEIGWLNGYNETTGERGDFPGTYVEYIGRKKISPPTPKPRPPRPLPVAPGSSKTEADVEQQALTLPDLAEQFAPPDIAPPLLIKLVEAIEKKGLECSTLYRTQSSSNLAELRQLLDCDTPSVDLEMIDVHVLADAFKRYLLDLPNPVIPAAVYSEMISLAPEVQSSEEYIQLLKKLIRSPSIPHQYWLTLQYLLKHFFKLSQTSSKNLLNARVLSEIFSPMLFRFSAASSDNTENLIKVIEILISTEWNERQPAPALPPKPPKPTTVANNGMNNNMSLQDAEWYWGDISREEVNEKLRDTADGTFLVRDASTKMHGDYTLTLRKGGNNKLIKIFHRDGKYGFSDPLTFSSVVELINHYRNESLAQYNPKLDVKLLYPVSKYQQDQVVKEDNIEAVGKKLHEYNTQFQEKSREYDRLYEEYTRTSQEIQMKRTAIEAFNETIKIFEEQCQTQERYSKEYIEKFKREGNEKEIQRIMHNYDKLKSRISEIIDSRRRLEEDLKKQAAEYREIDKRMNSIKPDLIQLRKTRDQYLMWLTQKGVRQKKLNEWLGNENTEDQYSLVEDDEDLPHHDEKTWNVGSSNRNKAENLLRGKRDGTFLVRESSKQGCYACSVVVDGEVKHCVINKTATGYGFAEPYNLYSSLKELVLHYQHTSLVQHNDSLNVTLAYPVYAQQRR", "test": "SelectScreen kinase assay", "details": "for Inhibition at 1 µM (%): PIK3CA/PIK3R1 (p110 alpha/p85 alpha), Adapta, ATP Km app"}, "[8]": {"biological_target": "MKNK2 (MNK2) (Homo sapiens, UniProt Q9HBH9)", "sequence (Q9HBH9 whole entry, species assumed)": "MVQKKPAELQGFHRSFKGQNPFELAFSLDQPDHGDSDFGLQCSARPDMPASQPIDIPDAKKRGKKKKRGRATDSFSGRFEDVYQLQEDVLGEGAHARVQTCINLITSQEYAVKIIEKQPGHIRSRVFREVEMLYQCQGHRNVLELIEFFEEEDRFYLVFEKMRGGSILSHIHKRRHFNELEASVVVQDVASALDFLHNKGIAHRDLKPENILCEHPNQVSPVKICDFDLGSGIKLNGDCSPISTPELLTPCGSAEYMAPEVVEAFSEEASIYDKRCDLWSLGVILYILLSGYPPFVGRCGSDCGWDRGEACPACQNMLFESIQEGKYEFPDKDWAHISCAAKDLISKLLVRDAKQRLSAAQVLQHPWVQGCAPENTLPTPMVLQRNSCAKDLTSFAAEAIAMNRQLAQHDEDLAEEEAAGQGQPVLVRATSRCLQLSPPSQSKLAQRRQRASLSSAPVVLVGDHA", "test": "SelectScreen kinase assay"}, "[9]": {"biological_target": "CDK5/p35 (Homo sapiens, UniProt Q00535)", "sequence (Q00535 whole entry)": "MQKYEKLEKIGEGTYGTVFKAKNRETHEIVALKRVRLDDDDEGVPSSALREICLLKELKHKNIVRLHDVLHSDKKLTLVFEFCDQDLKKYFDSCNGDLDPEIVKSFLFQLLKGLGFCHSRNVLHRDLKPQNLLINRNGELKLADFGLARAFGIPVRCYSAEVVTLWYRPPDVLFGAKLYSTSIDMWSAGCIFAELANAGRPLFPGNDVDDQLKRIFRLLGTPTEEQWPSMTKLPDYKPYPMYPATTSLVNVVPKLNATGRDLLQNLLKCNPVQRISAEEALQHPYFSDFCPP", "sequence (Q15078 whole entry partner)": "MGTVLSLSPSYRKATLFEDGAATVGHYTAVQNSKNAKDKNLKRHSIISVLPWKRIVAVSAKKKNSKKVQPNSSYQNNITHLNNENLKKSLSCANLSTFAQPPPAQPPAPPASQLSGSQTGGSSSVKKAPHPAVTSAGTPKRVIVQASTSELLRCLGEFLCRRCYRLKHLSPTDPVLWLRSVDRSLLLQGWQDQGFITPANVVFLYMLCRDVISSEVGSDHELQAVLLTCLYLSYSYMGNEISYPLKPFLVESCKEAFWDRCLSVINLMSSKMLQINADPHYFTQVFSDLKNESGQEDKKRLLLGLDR", "test": "SelectScreen kinase assay"}, "[10]": {"biological_target": "CDK14 (PFTK1)/cyclin Y (Homo sapiens, UniProt O94921)", "test": "SelectScreen kinase assay"}, "[11]": {"biological_target": "ADCK3 (Homo sapiens, UniProt Q8NI60)", "test": "SelectScreen kinase assay"}, "[12]": {"biological_target": "T2, DCAMKL2 (DCK2) (Homo sapiens, UniProt Q8N568)", "T2 sequence (Q8N568 1-766)": "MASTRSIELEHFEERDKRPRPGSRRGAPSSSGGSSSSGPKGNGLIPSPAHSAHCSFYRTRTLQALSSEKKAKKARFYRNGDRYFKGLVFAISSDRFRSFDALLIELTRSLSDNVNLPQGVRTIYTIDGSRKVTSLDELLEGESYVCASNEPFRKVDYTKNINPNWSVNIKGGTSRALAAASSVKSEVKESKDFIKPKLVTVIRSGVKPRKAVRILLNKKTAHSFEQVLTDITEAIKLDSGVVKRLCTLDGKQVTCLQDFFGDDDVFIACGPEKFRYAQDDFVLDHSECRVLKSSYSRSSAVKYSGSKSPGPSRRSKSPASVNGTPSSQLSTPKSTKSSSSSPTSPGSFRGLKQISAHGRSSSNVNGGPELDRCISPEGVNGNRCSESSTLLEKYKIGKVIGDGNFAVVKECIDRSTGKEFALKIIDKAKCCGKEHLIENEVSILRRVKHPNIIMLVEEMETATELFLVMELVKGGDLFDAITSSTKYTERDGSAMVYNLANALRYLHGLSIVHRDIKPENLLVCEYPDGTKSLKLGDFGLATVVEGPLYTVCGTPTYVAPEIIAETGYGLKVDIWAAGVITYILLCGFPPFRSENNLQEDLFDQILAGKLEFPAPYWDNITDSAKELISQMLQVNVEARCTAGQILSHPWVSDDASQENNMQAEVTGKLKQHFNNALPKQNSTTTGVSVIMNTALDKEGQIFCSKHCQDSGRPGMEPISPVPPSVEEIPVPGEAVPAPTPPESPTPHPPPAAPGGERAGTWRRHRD", "test": "SelectScreen kinase assay"}, "[13]": {"biological_target": "BMPR1A (ALK3) (Homo sapiens, UniProt P36894)", "sequence (P36894 24-532)": "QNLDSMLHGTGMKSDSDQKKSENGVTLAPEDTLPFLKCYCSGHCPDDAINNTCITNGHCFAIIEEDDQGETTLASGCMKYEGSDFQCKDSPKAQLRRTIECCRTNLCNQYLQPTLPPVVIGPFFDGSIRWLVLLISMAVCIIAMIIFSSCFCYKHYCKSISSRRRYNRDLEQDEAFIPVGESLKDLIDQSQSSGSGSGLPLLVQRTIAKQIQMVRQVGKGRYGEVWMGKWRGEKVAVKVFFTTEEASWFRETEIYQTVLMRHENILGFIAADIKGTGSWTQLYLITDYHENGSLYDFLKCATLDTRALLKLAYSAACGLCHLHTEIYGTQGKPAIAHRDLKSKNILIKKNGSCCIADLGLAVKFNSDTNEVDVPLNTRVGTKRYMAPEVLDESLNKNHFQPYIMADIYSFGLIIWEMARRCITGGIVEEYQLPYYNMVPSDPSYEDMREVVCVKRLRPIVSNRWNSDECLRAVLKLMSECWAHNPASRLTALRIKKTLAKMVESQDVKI", "test": "SelectScreen kinase assay", "details": "for Inhibition at 1 µM (%): BMPR1A (ALK3), LanthaScreen Binding"}, "[14]": {"biological_target": "GRK4 (Homo sapiens, UniProt P32298)", "sequence (P32298 whole entry)": "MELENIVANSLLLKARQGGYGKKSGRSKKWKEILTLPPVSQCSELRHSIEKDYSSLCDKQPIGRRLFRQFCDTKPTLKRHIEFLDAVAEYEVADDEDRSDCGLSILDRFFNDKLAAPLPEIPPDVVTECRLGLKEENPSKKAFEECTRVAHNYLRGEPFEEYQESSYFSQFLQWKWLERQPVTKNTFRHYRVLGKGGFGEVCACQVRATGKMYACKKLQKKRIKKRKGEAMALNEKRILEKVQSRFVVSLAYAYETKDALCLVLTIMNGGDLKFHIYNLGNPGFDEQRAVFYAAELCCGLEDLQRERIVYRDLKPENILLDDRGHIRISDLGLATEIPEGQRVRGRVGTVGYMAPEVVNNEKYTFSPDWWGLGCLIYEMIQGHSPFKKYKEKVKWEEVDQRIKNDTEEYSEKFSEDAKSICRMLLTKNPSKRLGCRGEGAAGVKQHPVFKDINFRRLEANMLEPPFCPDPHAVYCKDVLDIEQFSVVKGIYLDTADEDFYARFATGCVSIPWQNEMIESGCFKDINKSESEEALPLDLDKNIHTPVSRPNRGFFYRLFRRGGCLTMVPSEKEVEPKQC", "test": "SelectScreen kinase assay", "details": "for Inhibition at 1 µM (%): GRK4, ZLYTE, ATP Km app"}, "[15]": {"biological_target": "CAMK4 (CaMKIV) (Homo sapiens, UniProt Q16566)", "test": "SelectScreen kinase assay"}, "[16]": {"biological_target": "FYN A (Homo sapiens, UniProt P06241)", "test": "SelectScreen kinase assay"}, "[17]": {"biological_target": "PRKCA (PKC alpha) (Homo sapiens, UniProt P17252)", "test": "SelectScreen kinase assay"}, "[18]": {"details": "read-out: Inhibition at 1 µM (%)"}, "[19]": {"details": "1 h, 1 μM WEL028, 1 h preincubation"}}, "note": "pIC50: −log10 of the molar value. Values joined by “and” are separate entries in the source; they are usually repeats but may differ in a detail not shown here. Identical values can stand only once. Like-named read-outs stand apart in the source and are kept apart here.", "data": [{"smiles": "C#CCOc1ccc(Nc2ncc(Cl)c(Nc3ccccc3NC(=O)C=C)n2)c(OC)c1", "note": "[Compound 6]", "values": [{"measurement": "Cell permeability", "setting": "[1]; living HEK293T cells", "result": "cell-permeable"}, {"measurement": "Concentration sufficient to fully block labeling of FES^S700C", "setting": "[1]; living HEK293T cells", "result": 100, "unit": "nM"}, {"measurement": "IC50", "setting": "[1]; transfected HEK293T cells treated with WEL028, click chemistry, n = 3, read-out: pIC50, labeling of FES^S700C in live cells (converted)", "result": 25.1, "unit": "nM"}, {"measurement": "inhibition at 1 µM", "setting": "[2]; 1 h", "result": 23, "unit": "%"}, {"measurement": "inhibition at 1 µM", "setting": "[2]; [18]", "result": 23, "unit": "%"}, {"measurement": "inhibition at 1 µM", "setting": "[3]; [19]", "result": 46, "unit": "%"}, {"measurement": "Inhibition at 1 µM (%)", "setting": "[3]; MAP2K3 (MEK3), 1 µM, LanthaScreen Binding, listed as WEL028, 1 µM", "result": 53, "unit": "%"}, {"measurement": "inhibition at 1 µM", "setting": "[3]; read-out: Inhibition at 1 µM (%), MAP2K3 (MEK3), 1 µM, LanthaScreen Binding", "result": 38, "unit": "%"}, {"measurement": "inhibition at 1 µM", "setting": "[4]; [19]", "result": -3, "unit": "%"}, {"measurement": "Inhibition at 1 µM (%)", "setting": "[4]; NEK7, 1 µM, ZLYTE, ATP Km app, listed as WEL028, 1 µM", "result": -2, "unit": "%"}, {"measurement": "Inhibition of FES in live neutrophils", "setting": "[5]; 100 nM, 1 h", "result": "complete and selective inhibition of FES"}, {"measurement": "Relative FES labeling (%)", "setting": "[5]; Figure 7b, replicates, listed as WEL028", "result": "9.291% and 9.41% and 8.966%"}, {"measurement": "inhibition at 1 µM", "setting": "[6]; 1 h", "result": -1, "unit": "%"}, {"measurement": "inhibition at 1 µM", "setting": "[6]; [18]", "result": -1, "unit": "%"}, {"measurement": "inhibition at 1 µM", "setting": "[7]; [19]", "result": 14, "unit": "%"}, {"measurement": "Inhibition at 1 µM (%)", "setting": "[7]", "result": 19, "unit": "%"}, {"measurement": "Inhibition at 1 µM (%)", "setting": "[7]; listed as WEL028, 1 µM", "result": 9, "unit": "%"}, {"measurement": "pIC50", "setting": "[8]", "result": 7.00}, {"measurement": "inhibition at 1 µM", "setting": "[8]; [19]", "result": 93, "unit": "%"}, {"measurement": "inhibition at 10 µM", "setting": "[8]; 1 h, log[inhibitor] (M) -5.00, LanthaScreen Binding", "result": 83, "unit": "%"}, {"measurement": "inhibition at 3.311 µM", "setting": "[8]; 1 h, log[inhibitor] (M) -5.48, LanthaScreen Binding", "result": 97, "unit": "%"}, {"measurement": "inhibition at 1.122 µM", "setting": "[8]; 1 h, log[inhibitor] (M) -5.95, LanthaScreen Binding", "result": 94, "unit": "%"}, {"measurement": "inhibition at 0.3715 µM", "setting": "[8]; 1 h, log[inhibitor] (M) -6.43, LanthaScreen Binding", "result": 82, "unit": "%"}, {"measurement": "inhibition at 0.123 µM", "setting": "[8]; 1 h, log[inhibitor] (M) -6.91, LanthaScreen Binding", "result": 54, "unit": "%"}, {"measurement": "inhibition at 0.0138 µM", "setting": "[8]; 1 h, log[inhibitor] (M) -7.86, LanthaScreen Binding", "result": 13, "unit": "%"}, {"measurement": "inhibition at 0.0004898 µM", "setting": "[8]; 1 h, log[inhibitor] (M) -9.31, LanthaScreen Binding", "result": 4, "unit": "%"}, {"measurement": "Apparent fold selectivity", "setting": "[8]; IC50 on that kinase divided by IC50 on FES^S700C", "result": 23, "unit": "fold"}, {"measurement": "Inhibition at 1 µM (%)", "setting": "[8]; MKNK2 (MNK2), 1 µM, LanthaScreen Binding, listed as WEL028, 1 µM", "result": 96, "unit": "%"}, {"measurement": "inhibition at 1 µM", "setting": "[8]; read-out: Inhibition at 1 µM (%), MKNK2 (MNK2), 1 µM, LanthaScreen Binding", "result": 89, "unit": "%"}, {"measurement": "inhibition at 1 µM", "setting": "[9]; [19]", "result": -4, "unit": "%"}, {"measurement": "Inhibition at 1 µM (%)", "setting": "[9]; CDK5/p35, 1 µM, ZLYTE, ATP Km app, listed as WEL028, 1 µM", "result": "-8% and 0%"}, {"measurement": "Inhibition (%)", "setting": "[10]; 1 μM WEL028, 1 h preincubation", "result": -7, "unit": "%"}, {"measurement": "Inhibition at 1 µM (%)", "setting": "[10]; CDK14 (PFTK1)/cyclin Y, 1 µM, LanthaScreen Binding", "result": -14, "unit": "%"}, {"measurement": "inhibition at 1 µM", "setting": "[11]; 1 h", "result": 2, "unit": "%"}, {"measurement": "inhibition at 1 µM", "setting": "[11]; [18]", "result": 2, "unit": "%"}, {"measurement": "inhibition at 1 µM", "setting": "[12]; [19]", "result": 3, "unit": "%"}, {"measurement": "Inhibition at 1 µM (%)", "setting": "[12]; DCAMKL2 (DCK2), 1 µM, ZLYTE, ATP Km app, listed as WEL028, 1 µM", "result": 2, "unit": "%"}, {"measurement": "inhibition at 1 µM", "setting": "[12]; read-out: Inhibition at 1 µM (%), DCAMKL2 (DCK2), 1 µM, ZLYTE, ATP Km app", "result": 4, "unit": "%"}, {"measurement": "inhibition at 1 µM", "setting": "[13]; [19]", "result": -2, "unit": "%"}, {"measurement": "Inhibition at 1 µM (%)", "setting": "[13]", "result": 2, "unit": "%"}, {"measurement": "Inhibition at 1 µM (%)", "setting": "[13]; listed as WEL028, 1 µM", "result": -6, "unit": "%"}, {"measurement": "inhibition at 1 µM", "setting": "[14]; [19]", "result": -1, "unit": "%"}, {"measurement": "Inhibition at 1 µM (%)", "setting": "[14]", "result": -2, "unit": "%"}, {"measurement": "Inhibition at 1 µM (%)", "setting": "[14]; listed as WEL028, 1 µM", "result": 1, "unit": "%"}, {"measurement": "inhibition at 1 µM", "setting": "[15]; [19]", "result": -5, "unit": "%"}, {"measurement": "Inhibition at 1 µM (%)", "setting": "[15]; CAMK4 (CaMKIV), 1 µM, ZLYTE, ATP Km app", "result": -15, "unit": "%"}, {"measurement": "inhibition at 1 µM", "setting": "[16]; [19]", "result": 3, "unit": "%"}, {"measurement": "Inhibition at 1 µM (%)", "setting": "[16]; FYN A, 1 µM, LanthaScreen Binding, listed as WEL028, 1 µM", "result": "-1% and 7%"}, {"measurement": "inhibition at 1 µM", "setting": "[17]; [19]", "result": 14, "unit": "%"}, {"measurement": "Inhibition at 1 µM (%)", "setting": "[17]; PRKCA (PKC alpha), 1 µM, ZLYTE, ATP Km app, listed as WEL028, 1 µM", "result": 10, "unit": "%"}, {"measurement": "inhibition at 1 µM", "setting": "[17]; read-out: Inhibition at 1 µM (%), PRKCA (PKC alpha), 1 µM, ZLYTE, ATP Km app", "result": 19, "unit": "%"}]}]}
